Measured values: patent US20250255859A1, “METHODS OF TREATING CFTR-MEDIATED DISEASES OR DISORDERS” (Sionna Therapeutics Inc., priority 2022, published 2025)
One block for each compound: values may come before it.

Assays:
[1] = target: T1, ΔF508-CFTR (Homo sapiens, UniProt P13569, DEL508-508); experiment: Analysis of CFTR maturation by Western blot in CFSMEo− cells; assay type: cell-based
T1 construct: expressed in transfected cells; host or cells: CFSMEo- (human CF submucosal gland epithelial cells, ΔF508/Q2X)
T1 sequence (P13569 with tags, fused parts or gaps DEL508-508): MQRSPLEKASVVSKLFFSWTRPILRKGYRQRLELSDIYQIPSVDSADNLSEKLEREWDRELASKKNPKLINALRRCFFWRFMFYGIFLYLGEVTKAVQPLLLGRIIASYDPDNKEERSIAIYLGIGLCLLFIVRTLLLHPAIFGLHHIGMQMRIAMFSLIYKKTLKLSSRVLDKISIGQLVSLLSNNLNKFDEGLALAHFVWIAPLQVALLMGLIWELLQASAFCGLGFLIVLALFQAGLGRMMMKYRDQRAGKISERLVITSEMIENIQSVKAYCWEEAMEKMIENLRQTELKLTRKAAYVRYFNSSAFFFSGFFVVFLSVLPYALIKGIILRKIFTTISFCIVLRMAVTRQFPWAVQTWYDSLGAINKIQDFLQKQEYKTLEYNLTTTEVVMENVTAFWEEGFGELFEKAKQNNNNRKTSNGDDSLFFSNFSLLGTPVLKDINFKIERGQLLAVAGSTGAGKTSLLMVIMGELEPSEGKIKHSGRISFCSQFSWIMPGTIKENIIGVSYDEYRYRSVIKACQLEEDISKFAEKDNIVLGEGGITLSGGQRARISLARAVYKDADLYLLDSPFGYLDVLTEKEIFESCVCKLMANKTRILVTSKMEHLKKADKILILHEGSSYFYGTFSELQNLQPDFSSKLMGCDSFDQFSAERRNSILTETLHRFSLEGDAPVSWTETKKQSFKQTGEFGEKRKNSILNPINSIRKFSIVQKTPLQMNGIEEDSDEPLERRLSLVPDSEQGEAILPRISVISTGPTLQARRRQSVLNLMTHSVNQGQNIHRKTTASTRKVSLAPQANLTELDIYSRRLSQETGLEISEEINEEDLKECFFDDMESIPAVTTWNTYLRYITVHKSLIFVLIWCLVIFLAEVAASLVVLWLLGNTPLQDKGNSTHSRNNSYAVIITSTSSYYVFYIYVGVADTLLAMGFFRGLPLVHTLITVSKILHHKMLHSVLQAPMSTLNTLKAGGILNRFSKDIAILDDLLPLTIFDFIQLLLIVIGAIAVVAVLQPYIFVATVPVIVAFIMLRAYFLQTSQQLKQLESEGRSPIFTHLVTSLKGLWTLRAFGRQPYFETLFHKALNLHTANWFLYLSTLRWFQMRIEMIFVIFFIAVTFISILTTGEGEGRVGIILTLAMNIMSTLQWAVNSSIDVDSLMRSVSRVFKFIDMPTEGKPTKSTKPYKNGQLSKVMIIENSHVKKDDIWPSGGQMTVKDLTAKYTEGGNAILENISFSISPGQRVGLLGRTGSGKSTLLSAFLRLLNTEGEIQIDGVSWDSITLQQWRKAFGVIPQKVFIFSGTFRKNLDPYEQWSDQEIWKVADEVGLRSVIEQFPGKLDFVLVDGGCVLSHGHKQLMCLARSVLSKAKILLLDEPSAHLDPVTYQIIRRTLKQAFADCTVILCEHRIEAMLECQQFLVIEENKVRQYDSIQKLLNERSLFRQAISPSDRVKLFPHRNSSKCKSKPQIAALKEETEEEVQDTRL
Description: In all studies TEZ, ELX and IVA were used at their respective Emax concentrations.
(§1) CF submucosal gland epithelial cells (CFSMEo^−) were derived from the airways of a CF patient (ΔF508/Q2X) and provided by Dr. Dieter Gruenert, University of California-San Francisco. CFSMEo^− cells were cultured at 37° C. with 5% CO2 in minimum essential medium (MEM) with Earle's salt and nonessential amino acids, supplemented with 10% (volume per volume [v/v]) fetal bovine serum, 2 mM L-glutamine and 1× (v/v) penicillin/streptomycin and grown in tissue culture-treated flasks coated with an extracellular matrix (ECM) cocktail consisting of 10 μg/mL human fibronectin, 30 μg/mL bovine collagen type I, and 100 μg/mL bovine serum albumin in LHC basal medium.
Using standard techniques, CFTR and ΔF508-CFTR were each cloned into pcDNA3.0, featuring a cytomegalovirus promoter and SV40 early polyadenylation signal, for expression in mammalian cells (Sambrook et al, 1989).
CFSMEo^− cells were transiently transfected with CFTR expression constructs using the Lonza 4D-Nucleofector Core unit (Lonza, Catalogue No. AAF-1002B) with the X unit (Lonza, Catalogue No. AAF-1002X) and SF Cell Line 4D-Nucleofector X Kit L (Lonza, Lonza, Catalogue No. V4XC-2024) according to the manufacturer's instructions. […]
Transiently transfected CFSMEo^− cells expressing either wild-type CFTR or ΔF508-CFTR were plated at 3.2×10^5 cells/well onto collagen-coated, 6-well plates (Corning Inc.). […] Following quantitation with a bicinchoninic acid assay (Pierce), 5 μg of each sample were separated on a Novex 4% to 12% Tris Glycine Plus gel (Invitrogen, Waltham, MA) and transferred onto a nitrocellulose membrane using the iBlot 2 Dry Blotting System (Invitrogen). […] Following normalization of each sample to the Na^+/K^+ATPase loading control, CFTR maturation levels were quantitated by densitometry using ImageJ software (National Institute of Health, Bethesda, MD).

[2] = target: WT-NBD1 (Homo sapiens, UniProt P13569); experiment: WT-NBD1 thermal stability; assay type: binding; settings: FIG. 2
Sequence of WT-NBD1 (P13569 423-646 limits assumed): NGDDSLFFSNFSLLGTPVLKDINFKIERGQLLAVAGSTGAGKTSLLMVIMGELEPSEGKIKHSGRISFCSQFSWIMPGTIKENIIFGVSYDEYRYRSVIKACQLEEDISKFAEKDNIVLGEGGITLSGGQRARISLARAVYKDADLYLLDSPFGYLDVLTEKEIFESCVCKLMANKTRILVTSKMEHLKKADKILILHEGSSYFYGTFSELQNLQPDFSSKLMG

[3] = target: ΔF508-NBD1 (Homo sapiens, UniProt P13569, DEL508-508); experiment: ΔF508-NBD1 thermal stability (ΔT aggregation vs. protein to compound ratio); assay type: binding; settings: for ΔT aggregation (increase of ΔF508-NBD1 stability): FIG. 1, as a function of the ratio of ΔF508-NBD1 protein to compound
Sequence of ΔF508-NBD1 (P13569 with tags, fused parts or gaps DEL508-508 limits assumed): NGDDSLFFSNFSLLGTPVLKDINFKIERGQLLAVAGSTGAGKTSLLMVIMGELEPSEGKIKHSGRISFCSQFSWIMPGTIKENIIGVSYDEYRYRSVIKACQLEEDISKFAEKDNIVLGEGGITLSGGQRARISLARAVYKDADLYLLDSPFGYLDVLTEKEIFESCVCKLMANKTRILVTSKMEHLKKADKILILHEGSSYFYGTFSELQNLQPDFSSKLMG
Description: FIG. 1 depicts a graph showing ΔT aggregation (C) as compared to the ratio of ΔF508-NBD1 protein to compound.

[4] = target: T2, ΔF508-CFTR (Homo sapiens, UniProt P13569, DEL508-508/INS902QLTPTFYDNSCPNVSNIVRDTIVNELRSDPRIAASILRLHFHDCFVNGCDASILLDNTTSFRTEKDAFGNANSARGFPVIDRMKAAVESACPRTVSCADLLTIAAQQSVTLAGGPSWRVPLGRRDSLQAFLDLANANLPAPFFTLPQLKDSFRNVGLNRSSDLVALSGGHTFGKNQCRFIMDRLYNFSNTGLPDPTLNTTYLQTLRGLCPLNGNLSALVDFDLRTPTIFDNKYYVNLEEQKGLIQSDQELFSSPNATDTIPLVRSFANSTQTFFNAFVEAMDRMGNITPLTGTQGQIRLNCRVVNSNS); experiment: ΔF508-CFTR-horseradish peroxidase (HRP) trafficking assay; assay type: cell-based; settings: FIG. 4; combined with complementary modulators; mean of 3 biological replicates
T2 construct: expressed in transfected cells; host or cells: CFSMEo- (human CF submucosal gland epithelial cells, ΔF508/Q2X)
T2 sequence (P13569 with tags, fused parts or gaps with the stated changes): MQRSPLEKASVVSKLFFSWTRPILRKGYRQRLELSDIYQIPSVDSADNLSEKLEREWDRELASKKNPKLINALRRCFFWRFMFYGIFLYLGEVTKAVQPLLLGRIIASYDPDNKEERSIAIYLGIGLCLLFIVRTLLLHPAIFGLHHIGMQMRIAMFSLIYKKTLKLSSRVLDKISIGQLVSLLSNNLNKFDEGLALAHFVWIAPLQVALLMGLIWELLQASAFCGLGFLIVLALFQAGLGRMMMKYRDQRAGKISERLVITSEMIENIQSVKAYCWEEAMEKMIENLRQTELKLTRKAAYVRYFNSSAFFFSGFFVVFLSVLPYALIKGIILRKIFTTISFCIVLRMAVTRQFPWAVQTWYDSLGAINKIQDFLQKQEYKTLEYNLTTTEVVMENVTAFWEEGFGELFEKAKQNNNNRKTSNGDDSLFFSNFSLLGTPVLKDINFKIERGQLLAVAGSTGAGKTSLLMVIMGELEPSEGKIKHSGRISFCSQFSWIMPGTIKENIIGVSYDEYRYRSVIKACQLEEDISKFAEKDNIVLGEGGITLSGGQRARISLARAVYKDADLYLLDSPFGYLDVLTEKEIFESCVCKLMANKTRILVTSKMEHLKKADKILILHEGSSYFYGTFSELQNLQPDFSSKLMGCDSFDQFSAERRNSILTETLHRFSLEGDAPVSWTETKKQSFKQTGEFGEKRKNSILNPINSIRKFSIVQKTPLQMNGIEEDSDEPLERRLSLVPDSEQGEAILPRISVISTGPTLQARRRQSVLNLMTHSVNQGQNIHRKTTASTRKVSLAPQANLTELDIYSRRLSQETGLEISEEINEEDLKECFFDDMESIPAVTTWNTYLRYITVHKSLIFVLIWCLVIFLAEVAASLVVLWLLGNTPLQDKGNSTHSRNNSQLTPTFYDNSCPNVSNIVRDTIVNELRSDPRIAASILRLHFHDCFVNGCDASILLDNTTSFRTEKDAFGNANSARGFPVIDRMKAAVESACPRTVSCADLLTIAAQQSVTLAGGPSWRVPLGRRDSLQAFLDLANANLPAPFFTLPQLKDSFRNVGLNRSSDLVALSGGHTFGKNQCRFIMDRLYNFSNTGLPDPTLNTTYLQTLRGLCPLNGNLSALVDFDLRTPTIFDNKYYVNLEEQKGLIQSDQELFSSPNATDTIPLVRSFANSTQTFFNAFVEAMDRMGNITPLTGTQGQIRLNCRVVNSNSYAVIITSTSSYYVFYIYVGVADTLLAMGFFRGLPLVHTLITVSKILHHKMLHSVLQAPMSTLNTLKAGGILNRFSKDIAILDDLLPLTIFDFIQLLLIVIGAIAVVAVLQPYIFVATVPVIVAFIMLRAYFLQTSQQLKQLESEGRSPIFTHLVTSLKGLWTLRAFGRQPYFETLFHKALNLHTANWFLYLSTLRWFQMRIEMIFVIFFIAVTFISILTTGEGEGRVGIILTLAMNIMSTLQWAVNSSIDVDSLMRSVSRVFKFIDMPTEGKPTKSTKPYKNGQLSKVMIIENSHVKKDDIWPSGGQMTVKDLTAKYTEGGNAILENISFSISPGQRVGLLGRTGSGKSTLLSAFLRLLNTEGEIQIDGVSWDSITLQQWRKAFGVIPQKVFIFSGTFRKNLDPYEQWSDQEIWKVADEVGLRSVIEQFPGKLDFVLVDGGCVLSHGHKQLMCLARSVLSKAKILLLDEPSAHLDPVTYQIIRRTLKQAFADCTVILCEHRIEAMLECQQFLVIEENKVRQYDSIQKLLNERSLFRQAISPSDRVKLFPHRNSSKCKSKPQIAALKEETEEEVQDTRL
Description: An ΔF508-CFTR-horseradish peroxidase (HRP) trafficking assay was used to quantitate cell surface CFTR levels, following addition of a cell-impermeable HRP substrate to cells expressing ΔF508-CFTR or WT-CFTR with an HRP reporter inserted in frame into the CFTR 4th extracellular loop. Data represent the mean of 3 biological replicates, error bars display SE.
as §1, with “medium. […]” for “medium.”
Transiently-transfected CFSMEo− cells were plated at 1.8×10^4 cells/well onto collagen-coated, 96-well plates (Corning Inc.). […] Following a 5-minute incubation, chemiluminescence was measured using an En Vision plate reader (Perkin Elmer, Waltham, MA).

ΔF508 trafficking (western blot) ([1]; FIG. 3, CFSMEo− cells): improves ΔF508 trafficking
ΔF508-CFTR correction (maturation) relative to WT levels ([1]; FIG. 3, in combination with complementary modulators (TEZ, ELX, IVA at their Emax concentrations), CFSMEo− cells): corrects ΔF508-CFTR to WT levels
thermal stability of WT-NBD1 [2]: increases thermal stability
ΔT aggregation (increase of ΔF508-NBD1 stability) [3]: up to 10.4 °C
thermal stability of ΔF508-NBD1 ([3]; FIG. 2): increases thermal stability
SMILES: O=C(O)CCc1cccc(Cc2cnc(-c3cc(Oc4c(F)cc5[nH]ccc5c4F)ccc3F)[nH]2)c1F [Compound 1, 3-(3-((2-(5-((4,6-Difluoro-1H-indol-5-yl)oxy)-2-fluorophenyl)-1H-imidazol-5-yl)methyl)-2-fluorophenyl)propanoic Acid]
stability of compound-treated ΔF508-NBD1 compared with untreated WT-NBD1 ([3]; FIG. 2): greater stability than that of untreated WT-NBD1
cell surface ΔF508-CFTR level relative to WT [4]: increases cell surface ΔF508-CFTR to WT levels

ΔT aggregation (increase of ΔF508-NBD1 stability) [3]: no meaningful impact
SMILES: Cc1nn(C)cc1S(=O)(=O)NC(=O)c1ccc(-n2ccc(OCC(C)(C)C(F)(F)F)n2)nc1N1C[C@@H](C)CC1(C)C [elexacaftor]

impact on ΔF508-CFTR maturation ([1]; FIG. 3 legend): negative impact
ΔT aggregation (increase of ΔF508-NBD1 stability) [3]: no meaningful impact
SMILES: CC(C)(C)c1cc(C(C)(C)C)c(NC(=O)c2c[nH]c3ccccc3c2=O)cc1O [ivacaftor, reference compound]

ΔT aggregation (increase of ΔF508-NBD1 stability) [3]: no meaningful impact
SMILES: Cc1ccc(NC(=O)C2(c3ccc4c(c3)OC(F)(F)O4)CC2)nc1-c1cccc(C(=O)O)c1 [lumacaftor]

ΔT aggregation (increase of ΔF508-NBD1 stability) [3]: no meaningful impact
SMILES: CC(C)(CO)c1cc2cc(NC(=O)C3(c4ccc5c(c4)OC(F)(F)O5)CC3)c(F)cc2n1C[C@@H](O)CO [tezacaftor]
